Results on 24 molecules are retold here after US20260365628A1, “SUBSTITUTED 3,4-DIHYDROQUINOLINONE INHIBITORS OF TSHR” (Septerna, Inc., priority 2022, published 2026).

Read-outs that look alike come from different tables or passages of the source.

The target in the test is T1, hTSHR (Homo sapiens, UniProt P16473).
T1 construct: expressed in transfected cells
The experiment in a line: hTSHR TR-FRET cAMP Assay (inhibition of M22-stimulated cAMP production). Type of test: cell-based. Summed up: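 Readout was a cAMP HTRF ratio of 655/620 nm after lysis, scaled between the EC80 M22 signal (0% inhibition) and no-agonist vehicle (100%). Frozen induced Expi293F-hTSHR cells saw test compounds (0.5% DMSO) for 15 min at 37 °C before 30 min of M22 stimulation at EC80.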
Background: TR-FRET usually uses a lanthanide donor and a delayed reading to cut background.

[1] abbreviates: Expi293F Inducible cells stably expressing hTSHR, cAMP HTRF, stimulated with EC80 of anti-TSHR antibody M22, 15 min compound preincubation, 30 min at 37° C., read-out: Activity (IC50 bins).

T1 sequence (P16473 21-764): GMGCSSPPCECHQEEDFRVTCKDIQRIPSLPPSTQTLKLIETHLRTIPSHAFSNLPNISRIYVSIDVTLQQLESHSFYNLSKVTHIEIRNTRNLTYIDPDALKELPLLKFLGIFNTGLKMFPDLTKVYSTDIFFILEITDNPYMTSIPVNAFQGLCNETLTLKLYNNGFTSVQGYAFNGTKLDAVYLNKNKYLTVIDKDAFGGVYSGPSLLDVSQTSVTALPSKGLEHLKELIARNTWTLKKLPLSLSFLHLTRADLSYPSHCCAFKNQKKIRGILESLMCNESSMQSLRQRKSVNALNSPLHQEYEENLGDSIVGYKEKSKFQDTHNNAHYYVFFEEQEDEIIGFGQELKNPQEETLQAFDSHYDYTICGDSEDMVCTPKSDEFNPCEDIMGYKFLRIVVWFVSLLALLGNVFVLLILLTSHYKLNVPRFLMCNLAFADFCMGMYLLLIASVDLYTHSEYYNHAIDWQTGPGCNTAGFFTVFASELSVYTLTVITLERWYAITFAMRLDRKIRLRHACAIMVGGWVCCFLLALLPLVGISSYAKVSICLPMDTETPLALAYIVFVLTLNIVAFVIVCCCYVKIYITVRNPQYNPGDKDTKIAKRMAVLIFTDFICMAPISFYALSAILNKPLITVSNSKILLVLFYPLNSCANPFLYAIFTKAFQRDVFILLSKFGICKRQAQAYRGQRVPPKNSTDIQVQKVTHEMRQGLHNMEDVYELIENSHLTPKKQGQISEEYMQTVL

Regarding `C[C@H]1Oc2cc(NC(=O)NC3(C)CCCCC3)ccc2N(Cc2cccc(C(F)(F)F)n2)C1=O` [Example 229, (R)-1-(2-methyl-3-oxo-4-((6-(trifluoromethyl)pyridin-2-yl)methyl)-3,4-dihydro-2H-benzo[b][1,4]oxazin-7-yl)-3-(1-methylcyclohexyl) urea], under setting [1], the IC50 (usually the concentration that gives 50% inhibition) was under 0.1 µM.
The same measure, in the same setting: to `C[C@@H](c1cccc(OC(F)(F)F)c1)n1c(=O)cnc2cc(NC(=O)NC3(C)CC(F)(F)C3)ccc21` [Example 221, (S)-1-(3,3-difluoro-1-methylcyclobuty 1)-3-(2-oxo-1-(1-(3-(trifluoromethoxy)phenyl)ethyl)-1,2-dihydroquinoxalin-6-yl)urea] belongs 0.1 to 1 µM.
Same read-out and setting: the figure for `C[C@@H](c1cc(OC(F)(F)F)c(F)cc1F)n1c(=O)cnc2cc(NC(=O)NC(C)(C)C)ccc21` [Example 151, (S)-1-(tert-butyl)-3-(1-(1-(2,4-difluoro-5-(trifluoromethoxy)phe-nyl)ethyl)-2-oxo-1,2-dihydroquinoxalin-6-yl)urea] is 0.1 to 1 µM.
Consider `C[C@H](c1ccccc1)N1C(=O)[C@@H](C)Oc2cc(NC(=O)NC(C)(C)C)ccc21` [Example 331, 1-(tert-butyl)-3-((R)-2-methyl-3-oxo-4-((R)-1-phenylethyl)-3,4-dihydro-2H-benzo[b][1,4]oxazin-7-yl)urea], for which the IC50 under setting [1] was over 1 µM.
In the case of `C[C@@H](c1cccc(Cl)c1Cl)n1c(=O)cnc2cc(NC(=O)NC(C)(C)C)ccc21` [Example 142, (S)-1-(tert-butyl)-3-(1-(1-(2,3-dichlorophenyl)ethyl)-2-oxo-1,2-dihydroquinoxalin-6-yl)urea], the IC50 under setting [1] lay in the range of 0.1 to 1 µM.
The same measure, in the same setting: the figure for `CC(C)CCNC(=O)Nc1ccc2c(c1)ncc(=O)n2[C@@H](C)c1cccc(OC(F)(F)F)c1` [Example 207, (S)-1-isopentyl-3-(2-oxo-1-(1-(3-(trifluoromethoxy)phenyl)ethyl)-1,2-dihydroquinoxalin-6-yl)urea] is 0.1 to 1 µM.
As for `C[C@H]1Oc2cc(NC(=O)NC(C)(C)C)c(C#N)cc2N(Cc2ccccc2)C1=O` [Example 341, (R)-1-(4-benzyl-6-cyano-2-methyl-3-oxo-3,4-dihydro-2H-benzo[b][1,4]oxazin-7-yl)-3-(tert-butyl)urea], the IC50 under setting [1] is 0.1 to 1 µM.
`C[C@@H](c1cccc(OCCC(F)(F)F)c1)n1c(=O)cnc2cc(NC(=O)NC(C)(C)C)ccc21` [Example 109, (S)-1-(tert-butyl)-3-(2-oxo-1-(1-(3-(3,3,3-trifluoropropoxy)phenyl)ethyl)-1,2-dihydroquinoxalin-6-yl)urea]: the IC50 under setting [1] lay in the range of 0.1 to 1 µM.
On the same count and under the same terms, the figure for `C[C@H]1Oc2cc(NC(=O)NC(C)(C)C)ccc2N(Cc2cccc(OC(F)(F)F)n2)C1=O` [Example 166, (R)-1-(tert-butyl)-3-(2-methyl-3-oxo-4-((6-(trifluoro-methoxy)pyridin-2-yl)methyl)-3,4-dihydro-2H-benzo [b][1,4]oxazin-7-yl)urea] is under 0.1 µM.
On the same count and under the same terms, the figure for `CC(C)(C)NC(=O)Nc1ccc2c(c1)CC(=O)N2Cc1ccccc1` [Example 31, 1-(1-benzyl-2-oxo-3H-indol-5-yl)-3-tert-butylurea] is over 1 µM; for `C[C@H]1Oc2cc(NC(=O)NC(C)(C)C)ccc2N(Cc2cc(C(F)(F)F)ccn2)C1=O` [Example 162, (R)-1-(tert-butyl)-3-(2-methyl-3-oxo-4-((4-(trifluoro-methyl)pyridin-2-yl)methyl)-3,4-dihydro-2H-benzo [b][1,4]oxazin-7-yl)urea] it is 0.1 to 1 µM; for `C[C@H]1Oc2cc(NC(=O)NC(C)(C)C)c(C#N)cc2N(Cc2cc(Cl)ccc2F)C1=O` [Example 373, (R)-1-(tert-butyl)-3-(4-(5-chloro-2-fluorobenzyl)-6-cyano-2-methyl-3-oxo-3,4-dihydro-2H-benzo[b][1,4]oxazin-7-yl)urea] it is 0.1 to 1 µM.
On the same count and under the same terms, the figure for `C[C@@H](c1cc(OC(F)(F)F)ccn1)n1c(=O)cnc2cc(NC(=O)NC(C)(C)C)ccc21` [Example 129, (S)-1-(tert-butyl)-3-(2-oxo-1-(1-(4-(trifluoromethoxy)pyri-din-2-yl)ethyl)-1,2-dihydroquinoxalin-6-yl)urea] is over 1 µM; for `C[C@@H](c1cccc(OC(F)(F)F)n1)n1c(=O)cnc2cc(NC(=O)NC3(C)CCC3)ccc21` [Example 106, (S)-1-(1-methylcyclobutyl)-3-(2-oxo-1-(1-(6-(trifluoromethoxy)pyri-din-2-yl)ethyl)-1,2-dihydroquinoxalin-6-yl)urea] it is 0.1 to 1 µM; for `COc1cccc([C@H](C)N2C(=O)[C@@H](C)Oc3cc(NC(=O)NC(C)(C)C)ccc32)c1` [Example 187, 1-(tert-butyl)-3-((R)-4-((S)-1-(3-methoxyphenyl)ethyl)-2-methyl-3-oxo-3,4-dihydro-2H-benzo[b][1,4]oxazin-7-yl)urea] it is 0.1 to 1 µM.
`C[C@@H](c1cccc(OC(F)(F)F)c1)n1c(=O)cnc2cc(NC(=O)NC3(C(F)(F)F)CCC3)ccc21` [Example 214, (S)-1-(2-oxo-1-(1-(3-(trifluoromethoxy)phenyl)ethyl)-1,2-dihydroquinoxalin-6-yl)-3-(1-(trifluoromethyl)cyclobutyl)urea]: under setting [1], the concentration for half-maximal inhibition (IC50) was in the range of 0.1 to 1 µM.
The same measure, in the same setting: to `C[C@@H](c1cccc(OC(F)(F)F)c1)n1c(=O)cnc2cc(NC(=O)N[C@H]3C[C@@H](C(F)(F)F)C3)ccc21` [Example 224, 1-(2-oxo-1-((S)-1-(3-(trifluoromethoxy)phenyl)ethyl)-1,2-dihydroquinoxalin-6-yl)-3-((1s,3S)-3-(trifluoromethyl)cyclobutyl)urea] belongs 0.1 to 1 µM; to `C[C@@H](c1cc(Cl)c(F)cc1F)n1c(=O)cnc2cc(NC(=O)NC(C)(C)C)ccc21` [Example 149, (S)-1-(tert-butyl)-3-(1-(1-(5-chloro-2,4-difluorophenyl)ethyl)-2-oxo-1,2-dihydroquinoxalin-6-yl)urea], 0.1 to 1 µM.
Molecule `CC(C)(C)NC(=O)Oc1ccc2c(c1)CCC(=O)N2Cc1ccccc1` [Example 63] yielded an IC50 of over 1 µM.
On to `COc1cccc(CN2C(=O)CCc3cc(NC(=O)NC(C)(C)C)ccc32)c1` [Example 22, 1-(tert-butyl)-3-(1-(3-methoxybenzyl)-2-oxo-1,2,3,4-tetrahydroquinolin-6-yl)urea], for which the IC50 under setting [1] was under 0.1 µM.
The same measure, in the same setting: the figure for `C[C@@H](c1cccc(CC(F)(F)F)n1)n1c(=O)cnc2cc(NC(=O)NC(C)(C)C)ccc21` [Example 150, (S)-1-(tert-butyl)-3-(2-oxo-1-(1-(6-(2,2,2-trifluoroethyl)pyridin-2-yl)ethyl)-1,2-dihydroquinoxalin-6-yl)urea] is 0.1 to 1 µM; for `C[C@@H](c1cccc(Oc2ccccc2)c1)n1c(=O)cnc2cc(NC(=O)NC(C)(C)C)ccc21` [Example 114, (S)-1-(tert-butyl)-3-(2-oxo-1-(1-(3-phenoxyphenyl)ethyl)-1,2-dihydroquinoxalin-6-yl)urea] it is 0.1 to 1 µM; for `C[C@H]1Oc2cc(NC(=O)NC(C)(C)C)ccc2N(Cc2cncc(C(F)(F)F)c2)C1=O` [Example 171, (R)-1-(tert-butyl)-3-(2-methyl-3-oxo-4-((5-(trifluoro-methyl)pyridin-3-yl)methyl)-3,4-dihydro-2H-benzo [b][1,4]oxazin-7-yl)urea] it is 0.1 to 1 µM.
The same measure, in the same setting: to `C[C@@H](c1cccc(CCCC(C)(C)O)c1)n1c(=O)cnc2cc(NC(=O)NC(C)(C)C)ccc21` [Example 118, (S)-1-(tert-butyl)-3-(1-(1-(3-(4-hydroxy-4-methylpentyl)phenyl)ethyl)-2-oxo-1,2-dihydroquinoxalin-6-yl)urea] belongs over 1 µM.
